Laboratory results reported in the NIST ThermoML archive (doi:10.1016/j.jct.2019.07.003).
Numbers after ± are expanded uncertainties.

Conditions: Crystal; DTA

Normal melting temperature	Structure (SMILES)
645 ± 1 °C	[Cl-].[Cs+] [cesium chloride]
844 ± 1 °C	[F-].[Li+] [lithium fluoride]
